The source of these data is patent US20240216315A1, “METHODS AND COMPOSITIONS FOR TREATMENT OF DIABETIC RETINOPATHY AND RELATED CONDITIONS” (Ocuphire Pharma, Inc., priority 2021, published 2024).

Data set [1] in a line: Phase 2 clinical study, safety: blood chemistry (alanine and aspartate aminotransferase in subjects' blood). It counts as in vivo, human. Conditions: combined placebo and Compound 1 patients. From the text: (§1) The study is to be configured as a placebo-controlled, double-masked, randomized, Phase 2 study in approximately 100 subjects with moderately severe to severe NPDR (diabetic retinopathy severity score [DRSS] Level 47 or 53, see FIG. 1) or mild PDR (DRSS Level 61), evaluating safety and efficacy following administration of Compound 1 twice daily for 24 weeks. The study will have a 1:1 randomization (placebo: Compound 1). Randomization will be stratified by level of disease severity (NPDR or PDR). Subjects with mild PDR will be capped at 20% for each arm. Efficacy evaluations at 12 and/or 24 weeks will include DRSS, center-involved diabetic macular edema (DME), moderate PDR or PDR-related adverse events (AEs), best-corrected visual acuity (BCVA), and central subfield thickness (CST). Further experimental procedures and results are described below.
(§2) At the Qualification/Baseline (Visit 2, Day 1): • The subject will be randomized into the study. • Study medication will be dispensed in accordance with the subjects randomized treatment arm. • Blood samples will be drawn pre-dose for baseline levels and on Visit 9 (Week 24) for exploratory biomarker processing (i.e., cytokine and Ref-1 levels) to evaluate pharmacodynamic properties. • Subjects will be instructed to administer their study medication (APX3330 or placebo) cach day, with 3 tablets every morning and 2 tablets every evening. Study medication should be taken at approximately the same time each day and may be taken with or without food.
At the Second Treatment Visit (Visit 6, Week 12±2 Days), subjects will return to the site for the following series of safety and efficacy assessments: drug accountability, concomitant medications, urine pregnancy test (only for women of childbearing potential), HR/BP/vital signs, BCVA (ETDRS), DRSS, CST (SD-OCT), blood draw for PK, blood chemistry, blood hematology, biomicroscopy, ophthalmoscopy, IOP, eGFR, and AEs. Following the completion of the assessments, used medication kits will be collected for accountability (by counting the number of unused tablets), and new study medication kits will be dispensed.
At the Third Treatment Visit (Visit 9, Week 24±2 Days), subjects will return to the site for the following series of safety and efficacy assessments: drug accountability, concomitant medications, urine pregnancy test (only for women of childbearing potential), physical examination, HR/BP/vital signs, BCVA (ETDRS), DRSS, CST (SD-OCT), blood chemistry, blood hematology, biomicroscopy, ophthalmoscopy, IOP, cGFR, AEs, and blood draw for exploratory biomarkers (ELISA, cytokine panel, comprehensive metabolic panel). Visit 9 (Week 24) is the end of the treatment period. Study medication will be returned for accountability (by counting the number of unused tablets), and no further study medication will be dispensed.
Study subjects will receive study medication as set forth in Table 1 according to the Treatment Group to which the subject is assigned. Subjects will be instructed to take study medication at approximately the same time each day, and the medication may be taken with or without food. […]

Data set [2] is described as follows: Phase 2 clinical study, safety: treatment-emergent adverse events. Format: in vivo, human.
Source text: as §1, §2
Telephone safety calls will be conducted for Visit 3 (Week 1±2 Days), Visit 5 (Week 8±2 Days), Visit 7 (Week 16±2 Days), and Visit 8 (Week 20±2 Days). The safety assessment will include review of drug compliance, concomitant medications, AEs, and urine pregnancy test at home (only for women of childbearing potential).
Study subjects will receive study medication as set forth in Table 1 according to the Treatment Group to which the subject is assigned. […]

With `CCCCCCCCC/C(=C\C1=C(C)C(=O)C(OC)=C(OC)C1=O)C(=O)O` [Compound 1, (E)-2-((4,5-dimethoxy-2-methyl-3,6-dioxocyclohexa-1,4-dien-1-yl)methylene)undecanoic acid], in data set [1] (week 12, 50 subjects), the “change in mean concentration of alanine aminotransferase in subjects' blood relative to Baseline” value was −0.8 IU/L, the “change in mean concentration of aspartate aminotransferase in subjects' blood relative to Baseline” value is −0.5 IU/L, the “reduction in mean concentration of alanine aminotransferase in subjects' blood relative to Baseline” value turned out to be 3.6% and the “reduction in mean concentration of aspartate aminotransferase in subjects' blood relative to Baseline” value stood at 3%. In data set [1] (week 24, 22 subjects), the “change in mean concentration of alanine aminotransferase in subjects' blood relative to Baseline” value is −2.1 IU/L, the “change in mean concentration of aspartate aminotransferase in subjects' blood relative to Baseline” value is listed as −1.8 IU/L, the “reduction in mean concentration of alanine aminotransferase in subjects' blood relative to Baseline” value amounted to 9.4% and the “reduction in mean concentration of aspartate aminotransferase in subjects' blood relative to Baseline” value came out at 9%. In addition, in data set [2] (Compound 1 administered orally according to the study protocol (600 mg/day)), the “safety profile in the patient population enrolled” value is “good safety profile”. The “total of treatment-emergent adverse events observed” value in data set [2] (from the 100 subjects enrolled, combined placebo and Compound 1 patients) came to 83. The “subjects that reported at least one treatment-emergent adverse event” value in data set [2] (of 100 subjects enrolled, combined placebo and Compound 1 patients) is 41.
